Test [1] concerns wild-type EBs. Briefly: Cardiomyogenesis (beating areas) in wild-type embryoid bodies. The class given is cell-based, mouse. The protocol: (§1) Undifferentiated ESCs were cultured as previously described^55.
Given the neutralizing activity of the peptide, the authors then asked whether Cripto BP was able to block ALK-4/Smad2-dependent Cripto signalling in ESCs and thereby mimic the absence of cripto in an ESC differentiation assay. The authors first evaluated whether Cripto BP was able to prevent Cripto-induced Smad2 phosphorylation of serum starved 2 day-old cripto^−/− Embryoid Bodies (EBs), as assessed by Western blot analysis. Recombinant soluble Cripto protein stimulated Smad2 phosphorylation^35. This effect was not modified by the presence of increasing amounts of either Cripto DP or CP (2.5 μM and 25 μM) (FIG. 6a). […] The authors thus asked whether the neutralizing activity of Cripto BP on endogenous Cripto signalling was also able to block cardiomyogenesis in wild-type ESCs. To this end, 2 day-old wild-type EBs were treated with increasing amounts of either CP or Cripto BP, ranging from 5.0 to 25 μM, and the percentage of EBs containing beating areas was scored from days 8 to 12 of the differentiation (n=˜60 EBs/group; FIG. 6b). Given that the peptides were dissolved in DMSO, control untreated EBs were compared with DMSO treated EBs.

The subject of test [2] is wild-type EBs. Description: Neuronal differentiation of wild-type EBs, βIII-tubulin immunofluorescence grades. The class given is cell-based, mouse. The settings on record: 25 μM peptide, 13 day-old EBs, mean±SD. As for the experimental part: as §1
Immunofluorescence analysis on adherent EBs, dopaminergic differentiated ESC and striatal grafts were performed as previously described^29, 35. The following primary antibodies were used: mouse anti-βIII-tubulin (Tuj1, 1:1000, Promega); anti-βIII tubulin (Sigma; 1:400), rabbit anti-tyrosine hydroxylase (TH, 1:200, PelFreez); mouse anti-TH (1:500, Chemicon); Nurr-1 (1:250, Santa Cruz); rabbit anti-Pitx3 (1:200, InVitrogen), rabbit anti-GIRK-2 (1:100, Chemicon); rat anti-DAT (1:1000, Chemicon); rabbit anti-5HT (1:200, Biogenesis); rabbit anti-NET (1:20, Chemicon), rabbit anti-GABA (1:500, Sigma); rabbit anti-Ki67 (1:1000, Neomarkers); and rat anti-Nestin (1:100, Developmental Studies Hybridoma Bank). Appropriate fluorophore conjugated secondary antibodies were used for visualization: (Cyanin-2, Cy3 and Cy5, 1:500, Jackson ImmunoResearch or Alexa-488, Alexa-594 and Alexa-633, 1:200, Molecular Probes).
Thus, if specific and effective, Cripto BP should be able to re-direct ESC fate and promote neural induction and neurogenesis. To address this issue, 2 day-old wild-type EBs were treated as described above, with either control (CP), dimeric (DP) or blocking (BP) peptides and both morphological and immunofluorescence analysis were performed on 13 day-old EBs. […]

The test system of test [3] is Cripto-induced Smad2 phosphorylation. Description: Smad2 phosphorylation assay (Western blot) in cripto-/- embryoid bodies. The class given is cell-based, mouse. The protocol: Two day-old cripto^−/− Embryoid Bodies (EBs) were serum starved for 3 hrs in DMEM (GIBCO) without LIF and in low serum (0.5% FBS). Following starvation, EBs were incubated for 20 min at 37° C. with recombinant Cripto protein (0.5 µg/ml) either alone or in the presence of the indicated amount of peptides. Finally, EBs were dissolved in Laemmli lysis buffer and analyzed by Western blot using the Trans-Blot Semi-dry System (BIO-RAD), following manufacturer's instruction. Anti-Smad2 and anti-phospho-Smad2 (Ser465/467) Antibodies (Cell Signalling Technology) were used, following the manufacturer's instructions.
Background: In western blotting, separated proteins are transferred to a membrane and probed.

The subject of a further test is Parkinsonian rats. Briefly: TH-ir neuron counts within striatal grafts. The settings on record: tumor-free animals. The class given is in vivo, rat. As for the experimental part:
Two days prior to grafting animals began cyclosporine-A immune suppression (10 mg/kg). Fourteen days post-lesioning selected animals (determined by behavioural rotations) were again anesthetized and stereotaxically injected with 1 μl of cell suspension at each of the 4 sites as previously described^29. Stereotaxic coordinates of 1st & 2nd Injection (from bregma): anterior 0.2 mm, lateral 3.0 mm, ventral 4.5 and 5.0 mm; 3rd & 4th Injection, anterior 1.0 mm, lateral 2.5 mm, ventral 4.5 and 5.0 mm; incisor bar 0 mm^57). ESCs were differentiated as outlined in FIG. 7a. In brief, ESC colonies were dissected away from the stromal feeder layer and dissociated using collagenase/dispase with agitation (700 μg/ml, Roche, for 20 min, 80 rpm). Cells were subsequently resuspended at a density of 3,000 cells/μl ready for grafting. Five rats received Sham injections (4 μl N2 media, 1 μl/site), 16 rats received a total of 12,000 ESCs (4×1 μl grafts) pre-treated with the Control peptide (of which 9 of these animals also received infusion of the Control peptide) and a further 16 rats received grafts pretreated with the Cripto blocking peptide (9 animals receiving infusion of the Cripto BP).
The peptide infusion was performed by implantation of a cannula into the striatum (Alzet brain infusion kit) connected to a subcutaneously placed osmotic minipump (Alzet) prefilled with either CP or Cripto BP. […]

In the case of `C[S+]([O-])CCC(N)C(=O)N[C@@H](CSCc1ccccc1)C(=O)N[C@@H](CSCc1ccccc1)C(=O)N[C@@H](CCCCNC(=O)[C@H](CSCc1ccccc1)NC(=O)[C@H](CSCc1ccccc1)NC(=O)[C@@H](N)CC[S+](C)[O-])C(=O)N[C@@H](CCCCNC(=O)[C@H](CCCCNC(=O)[C@H](CSCc1ccccc1)NC(=O)[C@H](CSCc1ccccc1)NC(=O)[C@@H](N)CC[S+](C)[O-])NC(=O)[C@H](CSCc1ccccc1)NC(=O)[C@H](CSCc1ccccc1)NC(=O)[C@@H](N)CC[S+](C)[O-])C(=O)NCC(=O)O` (some centres unmarked) [Cripto BP], in the test on wild-type EBs [1] (25 μM peptide, wild-type EBs, mean±SD), the “rhythmically contracting (beating) EBs” value was 3.7%±3.5. In addition, the “effect on the percentage of beating EBs (cardiomyogenesis)” value with wild-type EBs [1] (5.0 to 25 μM, scored days 8 to 12) is given as “dose-dependent inhibition of cardiomyogenesis”. In addition, in the test on wild-type EBs [2], the “EBs with Grade 0 phenotype (absence of neurons)” value is 17.4%±1.15 and the “EBs with Grade 3 phenotype (full neuronal differentiation)” value is recorded as 45.6%±5.2. In addition, in test [3] (2 day-old cripto−/− EBs, Cripto 0.5 μg/ml, peptide 2.5 μM and 25 μM), the “effect on Cripto-induced Smad2 phosphorylation” value is on record as “inhibited”. Besides, the “effect on Cripto-induced Smad2 phosphorylation” value in test [3] (peptide 25 μM (125× molar excess)) is listed as “completely blocked”. Also, the “TH+ cell counts within the graft” value in the test with Parkinsonian rats (pre-treated ESCs + peptide infusion) was 10815±887. Further, the “TH+ cells within the graft” value with Parkinsonian rats (pre-treated ESCs without infusion) is on record as 7491±1488.

(Values after patent publication US20110028401A1, “CRIPTO BLOCKING MOLECULES AND THERAPEUTIC USES THEREOF” (CONSIGLIO NAZIONALE DELLE RICERCHE, priority 2009, published 2011).)
